Values of other authors in patent US4221778A, “Prolonged release pharmaceutical preparations” (Pennwalt Corporation, priority 1979, dated 1980).
Counter-ions that a name gives are not always drawn.

Assays:
[1] = not given; remark: listed apart in the source
[2] = not given; remark: listed apart in the source

COc1ccc2c(c1)[C@]13CCCC[C@@H]1[C@H](C2)N(C)CC3 [Dextromethorphan]
effectiveness in patients with pathological cough (pathological cough; compared with codeine): about the equal of codeine | analgesic or addictive properties (pathological cough; human, in vivo): no analgesic or addictive properties | toxicity (pathological cough; human, in vivo): quite low | drowsiness (pathological cough; unlike codeine): rarely produces drowsiness

CN[C@@H](C)[C@H](O)c1ccccc1 [Ephedrine]
biological half life in man: about 6 hours

CC(N)C(O)c1ccccc1 (stereo not shown) [PPA, phenylpropanolamine]
pKa [1]: 9.4 | biological half life in man: 3.9 hours

CC(C)(N)Cc1ccccc1 [Phentermine hydrochloride]
blood levels in humans ([2]; hydrochloride salt, doses of 15 mg. and 30 mg.): rapid peak concentrations

CC(C)(N)Cc1ccccc1 [Phentermine, phenyl-tertiary-butyl-amine]
absorption from the gastrointestinal tract ([2]; free form): rapidly absorbed

CN[C@@H](C)[C@@H](O)c1ccccc1 [Pseudoephedrine]
biological half life in man: 5-7 hours
